The values that follow come from patent US20240165116A1, “ROCK2 INHIBITOR FOR THE TREATMENT OF VIRAL INFECTION” (Graviton Bioscience B.V., priority 2021, published 2024).

“Also recorded” adds a separate entry of the source.

Assay [1] deals with SARS-CoV-2 (2019-nCoV/USA-WA1/2020 strain). Put plainly: In vitro SARS-CoV-2 prevention model: viral RNA in supernatant by qPCR. The assay is classed as cell-based. The settings on record: Severe acute respiratory syndrome coronavirus 2; Calu-3 cells treated 2 h at 37° C., challenged with 10^2 PFU SARS-CoV-2 for 6 h, qPCR of supernatant at 48 h; calculated from best-fit values; read-out: EC50 (SARS-CoV-2 in supernatant, classical dose-response curve). The procedure:
FIG. 2. Efficacy: SARS-CoV-2 CPN in Supernatant. Immortalized human airway epithelial cells (Calu-3) were treated with the listed concentrations of the Formula XII compound for 2 h at 37° C. followed by challenge with SARS-CoV-2 for 6 h. After washing, the cells were maintained for 48 hours and viral infection was analyzed by qPCR of the supernatant. Each data point represents the mean of three replicates.
FIG. 3. Efficacy: Classical Dose-Response Curve. This figure provides the dose-response curve for the experiment described in Example 1 and FIG. 2.
A 50 mM stock solution of (6-(4-((4-(1H-pyrazol-4-yl)phenyl)amino)pyrimidin-2-yl)-1-methyl-1H-indol-2-yl)(3,3-difluoroazetidin-1-yl)methanone (Formula XII) in DMSO was diluted using PBS to Formula XII concentrations of 100 μM, 10 μM, 1 μM, 0.3 μM, 0.1 μM, and 0.03 μM. About 30,000 immortalized human airway epithelial cells (Calu-3) were grown to about 100,000 cells per well in a 96-well format. […]
Viral infection was analyzed by qPCR (qRT-PCR). […] Viral or host RNA levels in the supernatant were determined using the TaqPath™ 1-Step RT-qPCR Master Mix (Thermo Fisher) on CFX Connect Real-Time System (Bio-Rad) instrument using the following primers: Fwd: 5′-[…]-3; Rev: 5′-[…]-3′).
Datasets were analyzed and plotted in GraphPad Prism (version 9.0.2). […]

For assay [2] the test system is unchanged. Put plainly: Viral load in lung lysates of SARS-CoV-2 challenged human ACE2 transgenic mice. The assay is classed as in vivo. Conditions: 300 mg/kg daily via oral gavage in 0.5% CMC-Na; initial viral loads 100, 1000, 10,000 pfu; compared with vehicle and Remdesivir (25 mg/kg subcutaneously). As for the experimental part: FIGS. 6A, 6B, and 6C. Efficacy: Viral Load in Lung Lysates. […] Shown are viral copies/mg of lungs for initial viral loads of 100 pfu SARS-CoV2 (FIG. 6A), 1000 pfu SARS-CoV2 (FIG. 6B), and 10,000 pfu SARS-CoV2 (FIG. 6C). Groups from left to right: Vehicle, Formula XII (300 mg/kg), Remdesivir (RDV). Inserts: Formula XII (300 mg/kg) (left), Remdesivir (RDV) (right).
Human ACE2 transgenic mice from Jackson Laboratories (n=5 per group) were challenged at t=0 with SARS-CoV-2 at an initial viral load of 100 PFU, 1,000, or 10,000 pfu of 2019-nCoV/USA-WA1/2020 strain. This strain was isolated from an oropharyngeal swab from a patient with a respiratory illness who developed the clinical disease (COVID-19) in January 2020 in Washington, US (BEI Resources, NR-52281). […] The infected mice were dosed daily via oral gavage with (1) 0.5% sodium carboxymethyl cellulose (CMC-Na) (negative control), (2) 300 mg/kg Formula XII in 0.5% CMC-Na (test group), or (3) Remdesivir (RDV). RDV, an anti-viral reagent that acts as a nucleoside analog and inhibits the RNA-dependent RNA polymerase (RdRp) of coronaviruses including SARS-CoV-2, was used a positive control. […] The animals were monitored daily. […] The viral load in the lung was determined by qPCR detecting viral RNA in lung lysates.

With `Cn1c(C(=O)N2CC(F)(F)C2)cc2ccc(-c3nccc(Nc4ccc(-c5cn[nH]c5)cc4)n3)cc21` [Formula XII, (6-(4-((4-(1H-pyrazol-4-yl)phenyl)amino)pyrimidin-2-yl)-1-methyl-1H-indol-2-yl)(3,3-difluoroazetidin-1-yl)methanone], in assay [1], the EC50 is 124 nM. For the same compound, the “Viral load in the lung (viral copies/mg of lungs, qPCR of lung lysates)” value in assay [2] is recorded as “significantly reduced viral load as compared to both the negative as well as the positive control; also recorded: reduces the spread of SARS-CoV2 in the lungs of mice in vivo”.

One may read the EC50 as the concentration needed to bring the measured effect to its halfway point.
